The first assay concerns the target T1, Human Factor D (Homo sapiens, UniProt P00746).
T1 construct: purified from human serum; purchased Complement Technology, Inc; host or cells: human serum (natural protein, not recombinant)
Kind of assay: Human Factor D Assay. The format is biochemical. The conditions noted are these: Human Factor D 80 nM, substrate Z-L-Lys-SBzl, assay of Example 3; read-out: IC50 (Stars). The method, boiled down: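 Serum-purified human factor D (80 nM final) preincubated 5 min at room temperature with test compound in 50 mM Tris, 1M NaCl, pH 7.5. Z-L-Lys-SBzl substrate and DTNB then added, each at 100 μM final. IC50 from nonlinear regression of reaction rate against compound concentration.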
T1 sequence (P00746 26-253): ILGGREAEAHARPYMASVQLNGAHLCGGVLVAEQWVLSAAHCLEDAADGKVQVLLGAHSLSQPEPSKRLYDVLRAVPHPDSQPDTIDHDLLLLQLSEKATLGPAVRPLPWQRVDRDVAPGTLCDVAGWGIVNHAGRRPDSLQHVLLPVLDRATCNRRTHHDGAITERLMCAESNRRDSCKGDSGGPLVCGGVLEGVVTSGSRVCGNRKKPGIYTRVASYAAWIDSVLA
The term IC50 denotes the concentration that gives 50% inhibition. For `CC(=O)c1nn(CC(=O)N2C[C@H](F)C[C@H]2C(=O)Nc2cccc(Br)n2)c2ccc(-c3ccc(C)cc3)cc12` [Compound 29, (2S,4R)-1-(2-(3-Acetyl-5-(p-tolyl)-1H-indazol-1-yl)acetyl)-N-(6-bromopyridin-2-yl)-4-fluoropyrrolidine-2-carboxamide], the half-maximal inhibitory concentration (IC50) is < 1000 nM. On the same count and under the same terms, under `CCC[C@@H](C)NC(=O)[C@@H]1C[C@@]2(C)C[C@H]2N1C(=O)Cn1nc(C(C)=O)c2cc(-c3cnc(C)nc3)ccc21` [Compound 16, (1R,3S,5R)-2-(2-(3-Acetyl-5-(2-methylpyrimidin-5-yl)-1H-indazol-1-yl)acetyl)-5-methyl-N—((R)-pentan-2-yl)-2-azabicyclo[3.1.0]hexane-3-carboxamide] stands < 1000 nM; under `CC(=O)c1nn(CC(=O)N2[C@H](C(=O)Nc3nc(Br)ccc3C)C[C@@]3(CO)C[C@@H]23)c2ccc(-c3cnc(CO)nc3)cc12` [Compound 32, (1R,3S,5S)-2-(2-(3-Acetyl-5-(2-(hydroxymethyl)pyrimidin-5-yl)-1H-indazol-1-yl)acetyl)-N-(6-bromo-3-methylpyridin-2-yl)-5-(hydroxymethyl)-2-azabicyclo[3.1.0]hexane-3-carboxamide], < 1000 nM.

The same assay, now with this note: Human Factor D 80 nM, substrate Z-L-Lys-SBzl; Table 2; read-out: IC50 (Stars).
Consider `COc1cc(Br)nc(NC(=O)[C@@H]2C[C@@]3(C)C[C@H]3N2C(=O)Cn2nc(C(N)=O)c3cc(-c4cnc(C)nc4)nc(C)c32)c1` [Compound 113, 1-(2-((1R,3S,5R)-3-((6-bromo-4-methoxypyridin-2-yl)carbamoyl)-5-methyl-2-azabicyclo[3.1.0]hexan-2-yl)-2-oxoethyl)-7-methyl-5-(2-methylpyrimidin-5-yl)-1H-pyrazolo[3,4-c]pyridine-3-carboxamide], for which the half-inhibitory concentration (IC50) was < 1000 nM. The same measure, in the same setting: under `CC(=O)c1nn(CC(=O)N2[C@H](C(=O)NC(C)Cc3ccsc3)C[C@@]3(C)C[C@@H]23)c2c(C)cc(-c3cnc(C)nc3)cc12` (stereo partly drawn) [Compound 183, (1R,3S,5R)-2-{2-[3-acetyl-7-methyl-5-(2-methylpyrimidin-5-yl)indazol-1-yl]acetyl}-5-methyl-N-[1-(thiophen-3-yl)propan-2-yl]-2-azabicyclo[3.1.0]hexane-3-carboxamide] stands < 1000 nM; under `CC(=O)c1cn(CC(=O)N2[C@H](C(=O)Nc3nc(Br)ccc3Cl)C[C@@]3(C)C[C@@H]23)c2c(C)cc(-c3cnc(CO)nc3)cc12` [Compound 84, (1R,3S,5R)-2-(2-(3-acetyl-5-(2-(hydroxymethyl)pyrimidin-5-yl)-7-methyl-1H-indol-1-yl)acetyl)-N-(6-bromo-3-chloropyridin-2-yl)-5-methyl-2-azabicyclo[3.1.0]hexane-3-carboxamide], < 1000 nM. The same measure, in the same setting: under `CC(=O)c1cn(CC(=O)N2[C@H](C(=O)Nc3nc(Br)ccc3C)C[C@@]3(C)C[C@@H]23)c2c(C)cc(-c3cnc(CO)nc3)cc12` [Compound 62, (1R,3S,5R)-2-(2-(3-acetyl-5-(2-(hydroxymethyl)pyrimidin-5-yl)-7-methyl-11H-indol-1-yl)acetyl)-N-(6-bromo-3-methylpyridin-2-yl)-5-methyl-2-azabicyclo[3.1.0]hexane-3-carboxamide] stands < 1000 nM; under `CC(=O)c1nn(CC(=O)N2C[C@H](F)C[C@H]2C(=O)Nc2cccc(Br)n2)c2c(C)cc(-c3cnc(C(C)O)nc3)cc12` (stereo partly drawn) [Compound 179, (2S,4R)-1-(2-(3-acetyl-5-(2-(1-hydroxyethyl)pyrimidin-5-yl)-7-methyl-1H-indazol-1-yl)acetyl)-N-(6-bromopyridin-2-yl)-4-fluoropyrrolidine-2-carboxamide], < 1000 nM; under `CC(=O)c1nn(CC(=O)N2[C@H](C(=O)Nc3nc(Br)ccc3C)C[C@@]3(C)C[C@@H]23)c2ccc(-c3cncc(S(N)(=O)=O)c3)cc12` [Compound 71, (1R,3S,5R)-2-(2-(3-Acetyl-5-(5-sulfamoylpyridin-3-yl)-1H-indazol-1-yl)acetyl)-N-(6-bromo-3-methylpyridin-2-yl)-5-methyl-2-azabicyclo[3.1.0]hexane-3-carboxamide], < 1000 nM.

On to `CC(=O)c1nn(CC(=O)N2C[C@H]3C[C@H]3[C@H]2C(=O)Nc2nc(Br)c(F)cc2C)c2c(C)cc(-c3cnc(C(C)O)nc3)cc12` (stereo partly drawn) [Compound 165, (1R,2S,5S)-3-(2-(3-acetyl-5-(2-(1-hydroxyethyl)pyrimidin-5-yl)-7-methyl-1H-indazol-1-yl)acetyl)-N-(6-bromo-5-fluoro-3-methylpyridin-2-yl)-3-azabicyclo[3.1.0]hexane-2-carboxamide], for which the IC50 was < 1000 nM. Still for that read-out and setting: next, `CC(=O)c1nn(CC(=O)N2[C@H](C(=O)Nc3nc(Br)ccc3C)C[C@@]3(C)C[C@@H]23)c2c(C)cc(-c3cnc(C(C)O)nc3)cc12` (stereo partly drawn) [Compound 95, (1R,3S,5R)-2-(2-(3-acetyl-5-(2-(1-hydroxyethyl)pyrimidin-5-yl)-7-methyl-1H-indazol-1-yl)acetyl)-N-(6-bromo-3-methylpyridin-2-yl)-5-methyl-2-azabicyclo[3.1.0]hexane-3-carboxamide]: < 1000 nM; `CC(=O)c1nn(CC(=O)N2[C@H](C(=O)Nc3nc(OC(F)(F)F)ccc3C)C[C@@]3(C)C[C@@H]23)c2c(C)cc(-c3cnc(CO)nc3)cc12` [Compound 55, (1R,3S,5R)-2-(2-(3-acetyl-5-(2-(hydroxymethyl)pyrimidin-5-yl)-7-methyl-1H-indazol-1-yl)acetyl)-5-methyl-N-(3-methyl-6-(trifluoromethoxy)pyridin-2-yl)-2-azabicyclo[3.1.0]hexane-3-carboxamide]: < 1000 nM. In the case of `CC(=O)c1cn(CC(=O)N2[C@H](C(=O)Nc3cncc(Br)n3)C[C@@]3(C)C[C@@H]23)c2c(C)cc(-c3cnc(CF)nc3)cc12` [Compound 218, (1R,3S,5R)-2-(2-(3-acetyl-5-(2-(fluoromethyl)pyrimidin-5-yl)-7-methyl-1H-indol-1-yl)acetyl)-N-(6-bromopyrazin-2-yl)-5-methyl-2-azabicyclo[3.1.0]hexane-3-carboxamide], the half-inhibitory concentration (IC50) was 1000 to 10000 nM. On the same count and under the same terms, next, `CC(=O)c1cn(CC(=O)N2[C@H](C(=O)Nc3nc(Br)ccc3C)C[C@@]3(C)C[C@@H]23)c2c(C)c(F)c(-c3cnc(C)nc3)cc12` [Compound 240, (1R,3S,5R)-2-(2-(3-acetyl-6-fluoro-7-methyl-5-(2-methylpyrimidin-5-yl)-1H-indol-1-yl)acetyl)-N-(6-bromo-3-methylpyridin-2-yl)-5-methyl-2-azabicyclo[3.1.0]hexane-3-carboxamide]: < 1000 nM; `CC(=O)c1nn(CC(=O)N2[C@H](C(=O)Nc3nc(Br)ccc3C)C[C@@]3(C)C[C@@H]23)c2c(C)cc(-c3cnc(C(C)O)cn3)cc12` (stereo partly drawn) [Compound 176, (1R,3S,5R)-2-(2-(3-acetyl-5-(5-(1-hydroxyethyl)pyrazin-2-yl)-7-methyl-1H-indazol-1-yl)acetyl)-N-(6-bromo-3-methylpyridin-2-yl)-5-methyl-2-azabicyclo[3.1.0]hexane-3-carboxamide]: < 1000 nM. On the same count and under the same terms, next, `CC(=O)c1nn(CC(=O)N2[C@H]3CC[C@H](C3)[C@H]2C(=O)Nc2nc(Br)ccc2C)c2c(C)cc(-c3cnc(C)nc3)cc12` [Compound 99, (1S,3S,4R)-2-(2-(3-Acetyl-7-methyl-5-(2-methylpyrimidin-5-yl)-1H-indazol-1-yl)acetyl)-N-(6-bromo-3-methylpyridin-2-yl)-2-azabicyclo[2.2.1]heptane-3-carboxamide]: < 1000 nM; `CCC(Cc1ccccc1)NC(=O)[C@@H]1C[C@@]2(C)C[C@H]2N1C(=O)Cn1nc(C(C)=O)c2cc(-c3cnc(C)nc3)cc(C)c21` (stereo partly drawn) [Compound 173, (1R,3S,5R)-2-{2-[3-acetyl-7-methyl-5-(2-methylpyrimidin-5-yl)indazol-1-yl]acetyl}-5-methyl-N-(1-phenylbutan-2-yl)-2-azabicyclo[3.1.0]hexane-3-carboxamide]: < 1000 nM; `CC(=O)c1nn(CC(=O)N2[C@H](C(=O)N[C@@H]3CCCCC34OCCO4)C[C@@]3(C)C[C@@H]23)c2c(C)cc(-c3cnc(C)nc3)cc12` (single isomer, unassigned) [Compound 136]: < 1000 nM.

Take `CC(=O)c1nn(CC(=O)N2C[C@H]3C[C@H]3[C@H]2C(=O)Nc2nc(Br)ccc2C)c2c(C)cc(-c3cnc(C(C)O)nc3)cc12` (stereo partly drawn) [Compound 164, (1R,2S,5S)-3-(2-(3-acetyl-5-(2-(1-hydroxyethyl)pyrimidin-5-yl)-7-methyl-1H-indazol-1-yl)acetyl)-N-(6-bromo-3-methylpyridin-2-yl)-3-azabicyclo[3.1.0]hexane-2-carboxamide]: the IC50 is < 1000 nM.

As for `CC(=O)c1nn(CC(=O)N2[C@H](C(=O)Nc3nc(Br)ccc3C)C[C@@]3(C)C[C@@H]23)c2c(C)cc(-c3cnc([C@H](C)O)nc3)cc12` (single isomer, unassigned) [Compound 141], the IC50 was < 1000 nM. Same read-out and setting: under `COC(=O)c1ncc(-c2cc(C)c3c(c2)c(C(C)=O)nn3CC(=O)N2[C@H](C(=O)Nc3nc(C(F)(F)F)ccc3C)C[C@@]3(C)C[C@@H]23)cn1` [Compound 50, Methyl 5-(3-acetyl-7-methyl-1-(2-((1R,3S,5R)-5-methyl-3-((3-methyl-6-(trifluoromethyl)pyridin-2-yl)carbamoyl)-2-azabicyclo[3.1.0]hexan-2-yl)-2-oxoethyl)-1H-indazol-5-yl)pyrimidine-2-carboxylate] stands < 1000 nM; under `COC(=O)C1(c2cncc(-c3ccc4c(c3)c(C(C)=O)nn4CC(=O)N3[C@H](C(=O)Nc4nc(Br)ccc4C)C[C@@]4(C)C[C@@H]34)c2)CC1` [Compound 97, Methyl 1-(5-(3-acetyl-1-(2-((1R,3S,5R)-3-((6-bromo-3-methylpyridin-2-yl)carbamoyl)-5-methyl-2-azabicyclo[3.1.0]hexan-2-yl)-2-oxoethyl)-1H-indazol-5-yl)pyridin-3-yl)cyclopropane-1-carboxylate], < 1000 nM.

The record behind these values is patent publication US20230022157A1 (Achillion Pharmaceuticals, Inc., priority 2018, published 2023).
